Test results as given in EP0252380B1, “Antibiotic LL-E19020 alpha and beta” (AMERICAN CYANAMID COMPANY, priority 1986, dated 1988).
Converted amounts (≈) assume the structure as drawn. Like-named read-outs stand apart in the source and are kept apart here. Marks after values point to notes of the source that are not given here.

What was measured:
[1] = test system: Treponema hyodysenteriae; test: Minimum inhibitory concentration by microdilution (Table VII); assay type: cell-based; conditions: Brachyspira hyodysenteriae, read-out: MIC
[2] = test system: Pasteurella multocida 31081B; test: Pasteurella disk test (primary in vitro disk diffusion test); conditions: Pasteurella multocida, 31081B, read-out: ZONE SIZE
[3] = test system: Mycoplasma gallisepticum "R"; test: Minimum inhibitory concentration assay for Mycoplasma gallisepticum (microdilution, Table VII); conditions: Mycoplasmoides gallisepticum
[4] = test system: Pasteurella haemolytica 30660; test: Pasteurella disk test (primary in vitro disk diffusion test); assay type: cell-based; conditions: Mannheimia haemolytica; disks soaked in 2.5 mg/ml solution; strain 30660
[5] = test system: Treponema hyodysenteriae; test: T. hyodysenteriae disk test (primary in vitro disk diffusion test); conditions: Brachyspira hyodysenteriae
[6] = test system: In Vitro Rumen Fermentation; test: Propionate enhancement activity during in vitro rumen fermentation; assay type: cell-based, steer; conditions: for A:P: acetate/propionate ratio
Experimental: The drugs are dissolved or suspended (sonified if necessary) in a 0.1% Tween 20-ethanol-water vehicle and 25-50 ul is added to the incubation. The reaction is terminated with 6N HCl and centrifuged at 20,000 x g. Alliquots of the superinatant are analyzed for volatile fatty acid (VFA) content by gas-liquid chromatography.

[7] = Weight gains and feed efficiency in broiler chicks treated with E19020 alpha (Table IX A); assay type: in vivo; conditions: 200 PPM
Experimental: Five male and five female one day old Peterson X Arbor Acres chicks are allotted to starter battery cages by weight. Cages are randomized to treatment groups with seven replicates per treatment. […] The positive standard is penicillin at 200 ppm. Diets are prepared weekly.

[8] = Weight gain and feed efficiency of broiler chicks (Example 6, Table IX); assay type: in vivo, Peterson X Arbor Acres chicks; conditions: 200 PPM in diet
[9] = ATCC27164, strain B78 (ATCC 27164)
[10] = ATCC31212, strain B204 (ATCC 31212)

COC(=O)N/N=C/c1c[n+]([O-])c2ccccc2[n+]1[O-] [CARBADOX, reference compound]
MIC [1, 9]: 0.5 µg/mL (≈ 1.91 µM) | MIC [1, 10]: 0.25 µg/mL (≈ 0.953 µM)

CN(C)C1C(=O)C(C(N)=O)=C(O)C2(O)C(=O)C3=C(O)c4c(O)ccc(Cl)c4C(C)(O)C3CC12 (stereo not shown) [CTC, reference compound]
zone of inhibition at 2500 µg/mL [2]: 25 mm | MIC [3]: 0.5 µg/mL (≈ 1.04 µM) | zone of inhibition at 2500 µg/mL [4]: 11 mm | zone of inhibition at 2500 µg/mL ([5]; ATCC27164, read-out: ZONE SIZE): 45 mm | zone of inhibition at 2500 µg/mL ([5]; ATCC31212, read-out: ZONE SIZE): 37 mm

C=C[C@]1(C)C[C@@H](OC(=O)CSCCN(CC)CC)[C@]2(C)[C@H](C)CC[C@]3(CCC(=O)[C@H]32)[C@@H](C)[C@@H]1O [TIAMULIN, reference compound]
MIC [1, 9]: 0.015 µg/mL (≈ 0.0304 µM) | MIC [1, 10]: 0.015 µg/mL (≈ 0.0304 µM) | zone of inhibition at 2500 µg/mL ([5]; ATCC27164, read-out: ZONE SIZE): 67 mm | zone of inhibition at 2500 µg/mL ([5]; ATCC31212, read-out: ZONE SIZE): 70 mm

CC[C@H]1OC(=O)C[C@@H](O)[C@H](C)[C@@H](O[C@@H]2O[C@H](C)[C@@H](O[C@H]3C[C@@](C)(O)[C@@H](O)[C@H](C)O3)[C@H](N(C)C)[C@H]2O)[C@@H](CC=O)C[C@@H](C)C(=O)/C=C/C(C)=C/[C@@H]1CO[C@@H]1O[C@H](C)[C@@H](O)[C@@H](OC)[C@H]1OC [TYLOSIN, reference compound]
MIC [3]: 0.03 µg/mL (≈ 0.0327 µM)

AVOPARCIN [reference compound]
A:P ([6]; Table X, 1.0 PPM, control 2.65): 2.38 | TOTAL VFA ([6]; Table X, 1.0 PPM, control 159.4): 159.4 mM | A:P ([6]; Table X, 2.000 PPM, control 2.65): 2.23 | TOTAL VFA ([6]; Table X, 2.000 PPM, control 159.4): 160.2 mM | A:P ([6]; Table X, 4.0 PPM, control 2.65): 2.12 | TOTAL VFA ([6]; Table X, 4.0 PPM, control 159.4): 158.9 mM | A:P ([6]; Table X, 8.0 PPM, control 2.65): 2.08 | TOTAL VFA ([6]; Table X, 8.0 PPM, control 159.4): 158.3 mM | A:P ([6]; Table XI, 1.0 PPM, control 2.19): 2.02 | TOTAL VFA ([6]; Table XI, 1.0 PPM, control 125.3): 126.9 mM | A:P ([6]; Table XI, 2.0 PPM, control 2.19): 1.98 | TOTAL VFA ([6]; Table XI, 2.0 PPM, control 125.3): 125.3 mM | A:P ([6]; Table XI, 4.0 PPM, control 2.19): 1.90 | TOTAL VFA ([6]; Table XI, 4.0 PPM, control 125.3): 121.3 mM | A:P ([6]; Table XI, 8.0 PPM, control 2.19): 1.88 | TOTAL VFA ([6]; Table XI, 8.0 PPM, control 125.3): 119.4 mM

Penicillin [reference compound]
FEED/GAIN % I[…] CONTROLS 0-3 WEEKS [7]: 3.5% | FEED/GAIN % I[…] CONTROLS 0-7 WEEKS [7]: 6.0% | WEIGHT GAIN % I[…] CONTROLS 0-3 WEEKS [7]: 4.9% | WEIGHT GAIN % I[…] CONTROLS 0-7 WEEKS [7]: 3.4% | FEED/GAIN 0-3 WEEKS ([7]; control 1.43): 1.38** | FEED/GAIN 0-7 WEEKS ([7]; control 1.99): 1.87** | WEIGHT GAIN IN GRAMS 0-3 WEEKS ([7]; control 608): 638* GRAMS | WEIGHT GAIN IN GRAMS 0-7 WEEKS ([7]; control 2145): 2217 GRAMS | Wg Gains And Feed Efficiency % Improvement Over Controls COMBINED [8]: 3.5% | Wg Gains And Feed Efficiency % Improvement Over Controls FEMALES [8]: 4.2% | Wg Gains And Feed Efficiency % Improvement Over Controls MALES [8]: 2.4% | Wg Gains And Feed Efficiency % Improvement Over Controls FEED/GAIN ([8]; control 1.41): 1.35**
